Test results taken from patent US5350757A, “Substituted 1,2,3,4-tetrahydroisoquinolines with angiotensin II receptor antagonist properties” (Warner-Lambert Company, priority 1993, dated 1994).

Tests used:
AT1 = AT1 binding assay; details: at 10^-5 M concentration
angiotensin type 2 (AT2) [1] = molecular target: T1, angiotensin type 2 (AT2) (Oryctolagus cuniculus, UniProt G1T351); experiment: AT2 binding assay (rabbit uterus binding assay); details: for IC50: rabbit uterus binding assay
T1 construct: from tissue; host or cells: rabbit uterus
T1 sequence (G1T351 1-363): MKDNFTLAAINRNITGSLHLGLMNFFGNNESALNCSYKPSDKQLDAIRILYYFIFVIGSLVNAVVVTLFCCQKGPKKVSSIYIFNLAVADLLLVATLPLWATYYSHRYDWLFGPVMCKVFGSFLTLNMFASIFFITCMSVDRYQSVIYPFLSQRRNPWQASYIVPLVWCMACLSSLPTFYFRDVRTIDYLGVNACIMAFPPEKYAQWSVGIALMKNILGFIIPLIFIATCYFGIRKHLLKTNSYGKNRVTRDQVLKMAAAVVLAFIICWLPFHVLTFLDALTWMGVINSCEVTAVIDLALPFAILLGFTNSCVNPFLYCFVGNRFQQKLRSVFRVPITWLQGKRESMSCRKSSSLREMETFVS
From the text: (§1) A typical compound active in a rabbit uterus binding assay for detecting angiotensin type 2 (AT2) antagonists is compound 6 below. AT2 Binding Assay is a modification of the procedure by D. T. Dudley, et al, Mol. Pharmacol. 38:370 (1990) .

angiotensin type 2 (AT2) [2] = experiment: AT2 binding assay (rabbit uterus binding assay); details: AT2 versus AT1
From the text: as §1

AT-1 receptors = details: cited from earlier work

Structure (SMILES)	IC50 (angiotensin type 2 (AT2) [1]) [nM]	further results
COc1ccc2c(c1OCc1ccccc1)CC(C(=O)O)N(C(=O)C(c1ccccc1)c1ccccc1)C2 (racemic) [Example 20, (RS)-2-(Diphenylacetyl)-1,2,3,4-tetrahydro-6-methoxy-5-(phenylmethoxy)-3-isoquinolinecarboxylic acid]	2.8	AT1 binding assay activity (AT1): inactive; binding affinity for the AT2 receptor site, in words (angiotensin type 2 (AT2) [1]): high binding affinity; selectivity for the AT2 site (angiotensin type 2 (AT2) [2]): highly selective for the AT2 site
COc1cc2c(cc1OCc1ccccc1)CC(C(=O)O)N(C(=O)C(c1ccccc1)c1ccccc1)C2 (racemic) [Example 21, (RS)-2-(Diphenylacetyl)-1,2,3,4-tetrahydro-7-methoxy-6-(phenylmethoxy) -3-isoquinolinecarboxylic acid]	58.5	
COc1ccc2c(c1OCCc1ccccc1)CC(C(=O)O)N(C(=O)C(c1ccccc1)c1ccccc1)C2 (racemic) [Example 22, (RS)-2-(Diphenylacetyl)-1,2,3,4-tetrahydro-6-methoxy-5-(2-phenylethoxy)-3-isoquinolinecarboxylic acid]	8.9	
COc1ccc2c(c1OCc1ccccc1)CC(C(=O)O)N(C(=O)C(c1ccc(Cl)cc1)c1ccc(Cl)cc1)C2 (racemic) [Example 23, (RS)-2-[Bis(4-chlorophenyl)acetyl]-1,2,3,4-tetrahydro-6-methoxy-5-(phenylmethoxy)-3-isoquinolinecarboxylic acid]	24.2	
COc1ccc2c(c1OCc1ccccc1)CC(C(=O)O)N(C(=O)C(c1ccccc1)C1CCCC1)C2 (racemic) [Example 24, (RS)-2-(Cyclopentylphenylacetyl)-1,2,3,4-tetrahydro-6-methoxy-5-(phenylmethoxy)-3-isoquinolinecarboxylic acid]	1.6	
COc1ccc2c(c1OCc1ccccc1)CC(C(=O)O)N(C(=O)Cc1c(Cl)cccc1Cl)C2 (racemic) [Example 25, (RS)-2-[(2,6-Dichlorophenyl)acetyl]-1,2,3,4-tetrahydro-6-methoxy-5-(phenylmethoxy)-3-isoquinolinecarboxylic acid]	117	
COc1ccc2c(c1OCc1ccccc1)CC(C(=O)O)N(C(=O)N(C)c1ccccc1)C2 (racemic) [Example 26]	8.4	
COc1ccc(NC(=O)N2Cc3ccc(OC)c(OCc4ccccc4)c3CC2C(=O)O)cc1 (racemic) [Example 27, (RS)-1,2,3,4-Tetrahydro-6-methoxy-2-[[(4-methoxyphenyl)amino]carbonyl]-5-(phenylmethoxy)-3-isoguinolinecarboxylic acid]	1110	
CCOC(=O)C1Cc2c(ccc(OC)c2OCc2ccccc2)CN1C(=O)C(c1ccccc1)c1ccccc1 (racemic) [Example 30, (RS)-2-(Diphenylacetyl)-1,2,3,4-tetrahydro-6-methoxy-5-phenylmethoxy-3-isoquinolinecarboxylic acid, ethyl ester]	151	
COc1ccc2c(c1OCc1ccc(C(=O)O)cc1)CC(C(=O)O)N(C(=O)C(c1ccccc1)c1ccccc1)C2 (racemic) [Example 33, (RS)-5-(4-Carboxyphenylmethoxy)-2-(diphenylacetyl)-1,2,3,4-tetrahydro-6-methoxy-3-isoquinolinecarboxylic acid]	752	
COc1ccc(COc2c(OC)ccc3c2CC(C(=O)O)N(C(=O)C(c2ccccc2)c2ccccc2)C3)cc1C (racemic) [Example 35]	1.9	
CCCCc1nc(Cl)c(CO)n1Cc1ccc(-c2ccccc2-c2nn[nH]n2)cc1 [Dup753]		selective antagonism of AT-1 receptors (AT-1 receptors): selectively antagonized
